Among the data in PubChem BioAssay AID1259407 (Chemical Carcinogenesis Research Information System (CCRIS), 2018) are mutagenic call values, retold here.

Activity calls are given as the source filed them. No rule for the calls is given here.

The data set has as its system CCRIS mutagenicity, Ames/micronucleus/aberration tests. Description: CCRIS mutagenicity studies.
The mark [1] stands for this setting: Test System: AMES SALMONELLA TYPHIMURIUM, Strain/Indicator: TA98, Metabolic Activation: NONE, Method: PREINCUBATION

Take `NN(Cc1ccccc1)Cc1ccccc1`: the mutagenic call (Test System: AMES SALMONELLA TYPHIMURIUM, Strain/Indicator: TA100, Metabolic Activation: NONE, Method: STANDARD PLATE) is “inactive; negative”; the mutagenic call (Test System: AMES SALMONELLA TYPHIMURIUM, Strain/Indicator: TA100, Metabolic Activation: RAT, LIVER, S-9, AROCLOR 1254, Method: STANDARD PLATE) is “inactive; negative”; the mutagenic call (Test System: AMES SALMONELLA TYPHIMURIUM, Strain/Indicator: TA102, Metabolic Activation: NONE, Method: STANDARD PLATE) is “inactive; negative”; the mutagenic call (Test System: AMES SALMONELLA TYPHIMURIUM, Strain/Indicator: TA102, Metabolic Activation: RAT, LIVER, S-9, AROCLOR 1254, Method: STANDARD PLATE) is “inactive; negative”.
`Nc1cccc2nc3ccccc3nc12`: the mutagenic call is, setting by setting: under setting [1], “active; positive”; (Test System: AMES SALMONELLA TYPHIMURIUM, Strain/Indicator: TA98, Metabolic Activation: RAT, LIVER, S-9, PCB, Method: PREINCUBATION) “inactive; negative”.
With `COc1cc2c(c3oc4cccc(O)c4c(=O)c13)[C@@H]1CCO[C@@H]1O2`, the mutagenic call (Test System: AMES SALMONELLA TYPHIMURIUM, Strain/Indicator: TA98, Metabolic Activation: RAT, LIVER, S-9, PHENOBARBITAL, Method: STANDARD PLATE) is “inactive; negative” and the mutagenic call (Test System: AMES SALMONELLA TYPHIMURIUM, Strain/Indicator: TA100, Metabolic Activation: RAT, LIVER, S-9, PHENOBARBITAL, Method: STANDARD PLATE) was “inactive; negative”.
Turning to `O=[N+]([O-])c1ccc2ccc3c4c(cc5ccc1c2c53)[C@@H](O)[C@H](O)[C@@H]1O[C@H]41`, the mutagenic call (Test System: CHINESE HAMSTER OVARY, Strain/Indicator: CHO-K1-BH4 (HGPRT)/6-THIOGUANINE, Metabolic Activation: NONE) was “active; positive”.
Consider `Clc1cccc(Cl)c1Cl`, for which the mutagenic call runs as follows: (Test System: AMES SALMONELLA TYPHIMURIUM, Strain/Indicator: TA98, Metabolic Activation: HAMSTER, LIVER, S-9, AROCLOR 1254, Method: PREINCUBATION) “inactive; negative”; under setting [1], “inactive; negative”; (Test System: AMES SALMONELLA TYPHIMURIUM, Strain/Indicator: TA98, Metabolic Activation: RAT, LIVER, S-9, AROCLOR 1254, Method: PREINCUBATION) “inactive; negative”; (Test System: AMES SALMONELLA TYPHIMURIUM, Strain/Indicator: TA100, Metabolic Activation: HAMSTER, LIVER, S-9, AROCLOR 1254, Method: PREINCUBATION) “inactive; negative”; (Test System: AMES SALMONELLA TYPHIMURIUM, Strain/Indicator: TA100, Metabolic Activation: NONE, Method: PREINCUBATION) “inactive; negative”; (Test System: AMES SALMONELLA TYPHIMURIUM, Strain/Indicator: TA100, Metabolic Activation: RAT, LIVER, S-9, AROCLOR 1254, Method: PREINCUBATION) “inactive; negative”. Moreover, the mutagenic call (Test System: AMES SALMONELLA TYPHIMURIUM, Strain/Indicator: TA1535, Metabolic Activation: HAMSTER, LIVER, S-9, AROCLOR 1254, Method: PREINCUBATION) is “inactive; negative”; the mutagenic call (Test System: AMES SALMONELLA TYPHIMURIUM, Strain/Indicator: TA1535, Metabolic Activation: NONE, Method: PREINCUBATION) was “inactive; negative”; the mutagenic call (Test System: AMES SALMONELLA TYPHIMURIUM, Strain/Indicator: TA1535, Metabolic Activation: RAT, LIVER, S-9, AROCLOR 1254, Method: PREINCUBATION) was “inactive; negative”; the mutagenic call (Test System: AMES SALMONELLA TYPHIMURIUM, Strain/Indicator: TA1537, Metabolic Activation: HAMSTER, LIVER, S-9, AROCLOR 1254, Method: PREINCUBATION) was “inactive; negative”; the mutagenic call (Test System: AMES SALMONELLA TYPHIMURIUM, Strain/Indicator: TA1537, Metabolic Activation: NONE, Method: PREINCUBATION) is “inactive; negative”; the mutagenic call (Test System: AMES SALMONELLA TYPHIMURIUM, Strain/Indicator: TA1537, Metabolic Activation: RAT, LIVER, S-9, AROCLOR 1254, Method: PREINCUBATION) is “inactive; negative”.
Consider `C[C@]12CCC(=O)C=C1CC[C@@H]1[C@@H]2[C@@H](O)C[C@@]2(C)[C@H]1CC[C@]2(O)C(=O)CO`, for which the mutagenic call reads like this: (End Point: IN VITRO CHROMOSOMAL ABERRATIONS, Test System: HUMAN PERIPHERAL BLOOD LYMPHOCYTES, Metabolic Activation: NONE) “active; positive”; (Test System: UDS RAT HEPATOCYTES, Strain/Indicator: THY INCORP (18-20 HR), Metabolic Activation: NONE, Method: LIQUID SCINTILLATION COUNTING) “inactive; negative”.
